Measurements published in US20240182531A1, “KV1.3 Blockers” (priority 2021, published 2024).
Where a SMILES comes first, the peptide text is derived from it. Bridges are numbered along the chain shown (N, C = ends). [ ]: non-standard residue; d: D form. Nle = CCCC[C@H](N)C(=O)O; Orn = NCCC[C@H](N)C(=O)O; Dab = NCC[C@H](N)C(=O)O; Dap = NC[C@H](N)C(=O)O

The molecules below were run against T1, human Kv1.3 voltage-gated K+ channel (Homo sapiens, UniProt P22001) (assay: Kv1.3 blocker activity in FLIPR thallium assay).
T1 construct: host or cells: CHO-DUKX
T1 sequence (P22001 whole entry): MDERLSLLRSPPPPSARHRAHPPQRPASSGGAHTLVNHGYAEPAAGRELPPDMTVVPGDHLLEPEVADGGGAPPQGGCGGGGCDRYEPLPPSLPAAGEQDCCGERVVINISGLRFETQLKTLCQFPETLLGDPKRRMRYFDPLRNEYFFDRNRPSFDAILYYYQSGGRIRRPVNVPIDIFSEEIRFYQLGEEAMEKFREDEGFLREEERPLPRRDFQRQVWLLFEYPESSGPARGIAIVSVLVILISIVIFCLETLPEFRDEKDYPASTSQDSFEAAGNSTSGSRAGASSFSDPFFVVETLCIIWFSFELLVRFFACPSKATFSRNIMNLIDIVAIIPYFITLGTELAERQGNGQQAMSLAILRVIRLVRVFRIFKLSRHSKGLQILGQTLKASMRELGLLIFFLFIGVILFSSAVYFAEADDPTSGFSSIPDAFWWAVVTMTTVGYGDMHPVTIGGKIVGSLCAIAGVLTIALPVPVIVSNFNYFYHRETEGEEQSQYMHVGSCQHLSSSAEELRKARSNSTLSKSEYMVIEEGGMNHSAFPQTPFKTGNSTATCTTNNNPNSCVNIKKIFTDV
Format: cell-based
Method: A human Kv1.3 voltage-gated K+ channel cell line was purchased from Perkin Elmer (#TDS-AX-010-C-1). The cell line is based on CHO-DUKX cells stably transfected with the human Kv1.3 voltage-gated K+ channel.
The cell line was grown in MEMα with nucleotides, GlutaMAX (Gibco #32571028), 10% Foetal Bovine Serum (FBS), 0.4 mg/ml Geneticin, 100 units/ml Penicillin, and 100 μg/ml Streptomycin and seeded at 10.000 cells/well in black poly-D-lysine-coated 96 well plates.
The FluxOR™ Potassium Ion Channel Assay (Invitrogen #F10016) was used to quantitate flux of thallium ions into the cells as a response to Kv1.3 activation with a stimulus buffer causes depolarization of the cell membrane, thereby generating a fluorescent signal, proportional to channel activity. The assay was performed as described by the assay kit manufacturer including a compound pre-incubation step (30 min, 37° C., 5% CO2) in assay buffer containing 0.02% W/v casein from bovine milk (Sigma #C4765) prior to cell membrane depolarization using a final stimuli buffer composition corresponding to 0.2× FluxOR™ chloride-free buffer, 5 mM K2SO4, 1 mM Tl2SO4. The fluorescence responses were recorded and quantified (maximum response at 50 s, 37° C.) using the FLIPR® Tetra High Throughput Screening System (Molecular Devices, Inc.).
IC50 can be regarded as a measure of potency of inhibition for the respective compound. The IC50 value is a measure of the concentration of an inhibitor required to achieve half of that compound's maximal inhibition of ion channel activity in a given assay.

SMILES	IC50 [nM]
CCCC[C@H](NC(=O)[C@@H]1CCCN1)C(=O)N[C@@H](CCC(=O)O)C(=O)N[C@@H](CCCC)C(=O)N[C@@H](CCCNC(=N)N)C(=O)N[C@H]1CSSC[C@@H]2NC(=O)[C@H](CCCCN)NC(=O)CNC(=O)[C@H](Cc3ccccc3)NC(=O)[C@H]([C@@H](C)CC)NC(=O)[C@H](CO)NC(=O)CNC(=O)[C@H]([C@@H](C)CC)NC(=O)[C@H](C)NC(=O)[C@H](C)NC(=O)[C@H](CC(C)C)NC(=O)[C@@H]3CSSC[C@@H](C(=O)N[C@@H](Cc4ccc(O)cc4)C(=O)N4CCC[C@H]4C(=O)N[C@@H](CCCNC(=N)N)C(=O)O)NC(=O)[C@H](CCCCN)NC(=O)[C@H](CSSC[C@H](NC(=O)[C@H](CCC(=O)O)NC(=O)[C@H](C(C)C)NC(=O)[C@H](CCCN)NC(=O)[C@H](C)NC(=O)[C@H](CO)NC1=O)C(=O)N[C@@H](CCCCN)C(=O)N[C@@H](CCC(N)=O)C(=O)N[C@@H](CCCCN)C(=O)N3)NC(=O)[C@H](CCCCN)NC(=O)[C@H](CCCCN)NC(=O)[C@H](CC(N)=O)NC(=O)[C@H](CCCC)NC2=O [compound 6] (H-P[Nle]E[Nle]RCSA[Orn]VECKQKCLAAIGSIFGKC[Nle]NKKCKCYPR-OH; disulfide 6-27, 12-32, 16-34)	33
CCCC[C@H](NC(=O)[C@@H]1CCCN1)C(=O)N[C@@H](CCC(=O)O)C(=O)N[C@@H](CCCC)C(=O)N[C@@H](CCCNC(=N)N)C(=O)N[C@H]1CSSC[C@@H]2NC(=O)[C@H](CCCCN)NC(=O)CNC(=O)[C@H](Cc3ccccc3)NC(=O)[C@H]([C@@H](C)CC)NC(=O)[C@H](CO)NC(=O)CNC(=O)[C@H]([C@@H](C)CC)NC(=O)[C@H](C)NC(=O)[C@H](C)NC(=O)[C@H](CC(C)C)NC(=O)[C@@H]3CSSC[C@@H](C(=O)N[C@@H](Cc4ccc(O)cc4)C(=O)N4CCC[C@H]4C(=O)N[C@@H](CCCNC(=N)N)C(=O)O)NC(=O)[C@H](CCCCN)NC(=O)[C@H](CSSC[C@H](NC(=O)[C@H](CCC(=O)O)NC(=O)[C@H](C(C)C)NC(=O)[C@H](CO)NC(=O)[C@H](C)NC(=O)[C@H](CCCN)NC1=O)C(=O)N[C@@H](CCCCN)C(=O)N[C@@H](CCC(N)=O)C(=O)N[C@@H](CCCCN)C(=O)N3)NC(=O)[C@H](CCCCN)NC(=O)[C@H](CCCCN)NC(=O)[C@H](CC(N)=O)NC(=O)[C@H](CCCC)NC2=O [compound 2] (H-P[Nle]E[Nle]RC[Orn]ASVECKQKCLAAIGSIFGKC[Nle]NKKCKCYPR-OH; disulfide 6-27, 12-32, 16-34)	0.12
CCCC[C@H](NC(=O)[C@@H]1CCCN1)C(=O)N[C@@H](CCC(=O)O)C(=O)N[C@@H](CCCC)C(=O)N[C@@H](CCCNC(=N)N)C(=O)N[C@H]1CSSC[C@@H]2NC(=O)[C@H](CCCCN)NC(=O)CNC(=O)[C@H](Cc3ccccc3)NC(=O)[C@H]([C@@H](C)CC)NC(=O)[C@H](CO)NC(=O)CNC(=O)[C@H]([C@@H](C)CC)NC(=O)[C@H](C)NC(=O)[C@H](C)NC(=O)[C@H](CC(C)C)NC(=O)[C@@H]3CSSC[C@@H](C(=O)N[C@@H](Cc4ccc(O)cc4)C(=O)N4CCC[C@H]4C(=O)N[C@@H](CCCNC(=N)N)C(N)=O)NC(=O)[C@H](CCCCN)NC(=O)[C@H](CSSC[C@H](NC(=O)[C@H](CCC(=O)O)NC(=O)[C@H](C(C)C)NC(=O)[C@H](CO)NC(=O)[C@H](C)NC(=O)[C@H](CCCNC(=N)N)NC1=O)C(=O)N[C@@H](C)C(=O)N[C@@H](CCC(N)=O)C(=O)N[C@@H](CO)C(=O)N3)NC(=O)[C@H](CCCCN)NC(=O)CNC(=O)[C@H](CC(N)=O)NC(=O)[C@H](CCCC)NC2=O [compound 11] (H-P[Nle]E[Nle]RCRASVECAQSCLAAIGSIFGKC[Nle]NGKCKCYPR-NH2; disulfide 6-27, 12-32, 16-34)	0.22
CCCC[C@H](NC(=O)[C@@H]1CCCN1)C(=O)N[C@@H](CCC(=O)O)C(=O)N[C@@H](CCCC)C(=O)N[C@@H](CCCNC(=N)N)C(=O)N[C@H]1CSSC[C@@H]2NC(=O)[C@H](CCCCN)NC(=O)CNC(=O)[C@H](Cc3ccccc3)NC(=O)[C@H]([C@@H](C)CC)NC(=O)[C@H](CO)NC(=O)CNC(=O)[C@H]([C@@H](C)CC)NC(=O)[C@H](C)NC(=O)[C@H](C)NC(=O)[C@H](CC(C)C)NC(=O)[C@@H]3CSSC[C@@H](C(=O)N[C@@H](Cc4ccc(O)cc4)C(=O)N4CCC[C@H]4C(=O)N[C@@H](CCCNC(=N)N)C(=O)O)NC(=O)[C@H](CCCCN)NC(=O)[C@H](CSSC[C@H](NC(=O)[C@H](CCC(=O)O)NC(=O)[C@H](C(C)C)NC(=O)[C@H](CO)NC(=O)[C@H](C)NC(=O)[C@H](Cc4ccc(O)cc4)NC1=O)C(=O)N[C@@H](CCCCN)C(=O)N[C@@H](CCC(N)=O)C(=O)N[C@@H](CCCCN)C(=O)N3)NC(=O)[C@H](CCCCN)NC(=O)[C@H](CCCCN)NC(=O)[C@H](CC(N)=O)NC(=O)[C@H](CCCC)NC2=O [compound 5] (H-P[Nle]E[Nle]RCYASVECKQKCLAAIGSIFGKC[Nle]NKKCKCYPR-OH; disulfide 6-27, 12-32, 16-34)	0.18
CCCC[C@H](NC(=O)[C@@H]1CCCN1)C(=O)N[C@@H](CCC(=O)O)C(=O)N[C@@H](CCCC)C(=O)N[C@@H](CCCNC(=N)N)C(=O)N[C@H]1CSSC[C@@H]2NC(=O)[C@H](CCCCN)NC(=O)CNC(=O)[C@H](Cc3ccccc3)NC(=O)[C@H]([C@@H](C)CC)NC(=O)[C@H](CO)NC(=O)CNC(=O)[C@H]([C@@H](C)CC)NC(=O)[C@H](C)NC(=O)[C@H](C)NC(=O)[C@H](CC(C)C)NC(=O)[C@@H]3CSSC[C@@H](C(=O)N[C@@H](Cc4ccc(O)cc4)C(=O)N4CCC[C@H]4C(=O)N[C@@H](CCCNC(=N)N)C(=O)O)NC(=O)[C@H](CCCCN)NC(=O)[C@H](CSSC[C@H](NC(=O)[C@H](CCC(=O)O)NC(=O)[C@H](C(C)C)NC(=O)[C@H](CN)NC(=O)[C@H](C)NC(=O)[C@H](CO)NC1=O)C(=O)N[C@@H](CCCCN)C(=O)N[C@@H](CCC(N)=O)C(=O)N[C@@H](CCCCN)C(=O)N3)NC(=O)[C@H](CCCCN)NC(=O)[C@H](CCCCN)NC(=O)[C@H](CC(N)=O)NC(=O)[C@H](CCCC)NC2=O [compound 8] (H-P[Nle]E[Nle]RCSA[Dap]VECKQKCLAAIGSIFGKC[Nle]NKKCKCYPR-OH; disulfide 6-27, 12-32, 16-34)	0.26
CCCC[C@H](NC(=O)[C@@H]1CCCN1)C(=O)N[C@@H](CCC(=O)O)C(=O)N[C@@H](CCCC)C(=O)N[C@@H](CCCNC(=N)N)C(=O)N[C@H]1CSSC[C@@H]2NC(=O)[C@H](CCCCN)NC(=O)CNC(=O)[C@H](Cc3ccccc3)NC(=O)[C@H]([C@@H](C)CC)NC(=O)[C@H](CO)NC(=O)CNC(=O)[C@H]([C@@H](C)CC)NC(=O)[C@H](C)NC(=O)[C@H](C)NC(=O)[C@H](CC(C)C)NC(=O)[C@@H]3CSSC[C@@H](C(=O)N[C@@H](Cc4ccc(O)cc4)C(=O)N4CCC[C@H]4C(=O)N[C@@H](CCCNC(=N)N)C(=O)O)NC(=O)[C@H](CCCCN)NC(=O)[C@H](CSSC[C@H](NC(=O)[C@H](CCC(=O)O)NC(=O)[C@H](C(C)C)NC(=O)[C@H](CO)NC(=O)[C@H](C)NC(=O)[C@H](CCN)NC1=O)C(=O)N[C@@H](C)C(=O)N[C@@H](CCC(N)=O)C(=O)N[C@@H](CO)C(=O)N3)NC(=O)[C@H](CCCCN)NC(=O)CNC(=O)[C@H](CC(N)=O)NC(=O)[C@H](CCCC)NC2=O [compound 9] (H-P[Nle]E[Nle]RC[Dab]ASVECAQSCLAAIGSIFGKC[Nle]NGKCKCYPR-OH; disulfide 6-27, 12-32, 16-34)	4.6
CCCC[C@H](NC(=O)[C@@H]1CCCN1)C(=O)N[C@@H](CCC(=O)O)C(=O)N[C@@H](CCCC)C(=O)N[C@@H](CCCNC(=N)N)C(=O)N[C@H]1CSSC[C@@H]2NC(=O)[C@H](CCCCN)NC(=O)CNC(=O)[C@H](Cc3ccccc3)NC(=O)[C@H]([C@@H](C)CC)NC(=O)[C@H](CO)NC(=O)CNC(=O)[C@H]([C@@H](C)CC)NC(=O)[C@H](C)NC(=O)[C@H](C)NC(=O)[C@H](CC(C)C)NC(=O)[C@@H]3CSSC[C@@H](C(=O)N[C@@H](Cc4ccc(O)cc4)C(=O)N4CCC[C@H]4C(=O)N[C@@H](CCCNC(=N)N)C(=O)O)NC(=O)[C@H](CCCCN)NC(=O)[C@H](CSSC[C@H](NC(=O)[C@H](CCC(=O)O)NC(=O)[C@H](C(C)C)NC(=O)[C@H](CO)NC(=O)[C@H](C)NC(=O)[C@H](CN)NC1=O)C(=O)N[C@@H](CCCCN)C(=O)N[C@@H](CCC(N)=O)C(=O)N[C@@H](CCCCN)C(=O)N3)NC(=O)[C@H](CCCCN)NC(=O)[C@H](CCCCN)NC(=O)[C@H](CC(N)=O)NC(=O)[C@H](CCCC)NC2=O [compound 7] (H-P[Nle]E[Nle]RC[Dap]ASVECKQKCLAAIGSIFGKC[Nle]NKKCKCYPR-OH; disulfide 6-27, 12-32, 16-34)	0.28
